# Data: patent US20220304998A1, “REBAMIPIDE FOR USE IN PREVENTION AND TREATMENT OF CROHN'S DISEASE” (SQUARE POWER LTD., priority 2019, published 2022)
# Experiments:
# [1] = tested on: patients suffering from Crohn's disease; experiment: Clinical course, response and tolerability in Crohn's disease patient case reports; format: in vivo, human; conditions: for adverse reaction: affecting skin and joints
# From the text: (§1) Several patients suffering from Crohn's disease for at least 5 years without sufficient response to standard treatment were given rebamipide tablets three times a day. […] The severity of the disease was quantified by the CDAI, and the level of inflammation by fecal calprotectin.
# [2] = tested on: patients suffering from Crohn's disease; experiment: Crohn's Disease Activity Index (CDAI) in Crohn's disease patients given rebamipide tablets; format: in vivo, human
# From the text: as §1
# Crohn's Disease Activity Index (CDAI) is a research tool used to quantify the symptoms of patients with Crohn's disease. It consists of eight factors, each summed after adjustment with a weighting factor. Remission of Crohn's disease is defined as CDAI below 150, whereas severe disease is defined as a value of greater than 450.
# Calprotectin (FC) = experiment: Fecal calprotectin in stool samples by ELISA kit (EK-CAL, Bühlmann); format: in vivo, human; conditions: for fecal calprotectin level: Example 1; for calprotectin: Example 2
# From the text: as §1
# Calprotectin (FC) is a small calcium-binding protein that is used as a biomarker for inflammatory bowel diseases since its fecal concentration correlates well with the disease severity. Calprotectin values lower than 200 μg/g feces are considered the normal level. It was measured in stool samples using commercially available enzyme-linked immunosorbent assay (ELISA) kit (EK-CAL, Bühlmann).
# [3] = oral administration; cited from earlier work
# [4] = summary of patient sample, add-on to corticosteroid
compound,measurement,setting,value
Cn1cnc([N+](=O)[O-])c1Sc1ncnc2nc[nH]c12 [azathioprine],adverse reaction leading to discontinuation,"[1]; Example 3, discontinued after two weeks",acute pancreatitis
adalimumab,adverse reaction,[1]; Example 1,immunological response had developed
"O=C(NC(Cc1cc(=O)[nH]c2ccccc12)C(=O)O)c1ccc(Cl)cc1 (stereo not shown) [rebamipide, 2-[(4-chlorobenzoyl)amino]-3-(2-oxo-1H-quinolin-4-yl)propanoic acid]",CDAI,"[2]; Example 1, person, Crohn's ileocolitis, rebamipide 100 mg three times daily with methylprednisolon 24 mg/day, after 6 weeks, relapse value 358",181 points
same,CDAI,"[2]; Example 1, after another 6 weeks, corticosteroid dose reduced to half, rebamipide 100 mg three times daily",73 points
same,CDAI,"[2]; Example 2, person, Crohn's ileocolitis, rebamipide 200 mg t.i.d. add-on to prednisone 40 mg/day, after 6 weeks, relapse value 479",225 points
same,CDAI,"[2]; Example 2, after another 6 weeks, rebamipide 100 mg t.i.d., prednisone tapered from 30 mg/day by 10 mg every 2 weeks",84 points
same,CDAI,"[2]; Example 3, person, Crohn's ileitis, rebamipide 100 mg three times daily with prednisone 50 mg/day, 25 mg after 14 days, after another 6 weeks, initial value 377",98 points
same,fecal calprotectin level,"Calprotectin (FC); after another 6 weeks, corticosteroid dose reduced to half, rebamipide 100 mg three times daily",63 µg/g
same,fecal calprotectin level,"Calprotectin (FC); rebamipide 100 mg three times daily with methylprednisolon 24 mg/day, after 6 weeks, relapse value up to 1939",228 µg/g
same,calprotectin,"Calprotectin (FC); after another 6 weeks, rebamipide 100 mg t.i.d., prednisone tapered from 30 mg/day by 10 mg every 2 weeks",110 µg/g
same,calprotectin,"Calprotectin (FC); rebamipide 200 mg t.i.d. add-on to prednisone 40 mg/day, after 6 weeks, relapse value 2215",356 µg/g
same,calprotectin level,"Calprotectin (FC); Example 3, rebamipide 100 mg three times daily with prednisone 50 mg/day, 25 mg after 14 days, after another 6 weeks, initial value up to 1051",122 µg/g
same,effect on calprotectin levels,Calprotectin (FC); [4],normalize calprotectin levels
same,disease activity on rebamipide only after corticosteroid withdrawal,"[1]; Example 1, patient continued only rebamipide",No worsening in disease activity
same,disease activity on rebamipide only after prednisone discontinuation,"[1]; Example 2, patient continued only rebamipide 100 mg t.i.d.",No worsening in disease activity
same,clinical symptoms,"[1]; Example 3, after 14 days of rebamipide 100 mg three times daily with prednisone 50 mg/day",alleviation of the clinical symptoms
same,disease activity on rebamipide only after prednisone withdrawal,"[1]; Example 3, patient continued only rebamipide",No worsening in disease activity
same,maintenance of remission,"[1]; rebamipide alone, long-term",able to maintain remission
same,tolerability of long-term therapy,"[1]; rebamipide alone, long-term",well tolerated
same,remission in patients who exhausted standard treatment options,[1]; [4],induce remission
same,absorption in the GI tract,[3],poorly absorbed
C[C@]12C=CC(=O)C=C1CC[C@@H]1[C@@H]2C(=O)C[C@@]2(C)[C@H]1CC[C@]2(O)C(=O)CO [prednisone],treatment outcome of corticosteroid alone after relapse,"[1]; Example 2, prednisone 40 mg/day before rebamipide",not able to reach remission
infliximab: monoclonal antibody against TNFα,adverse reaction,[1]; Example 1,immunological response had developed
C[C@H]1C[C@@H]2[C@H]([C@@H](O)C[C@@]3(C)[C@H]2CC[C@]3(O)C(=O)CO)[C@@]2(C)C=CC(=O)C=C12 [methylprednisolon],treatment outcome of corticosteroid alone after relapse,"[1]; Example 1, methylprednisolon 24 mg/day before rebamipide",without success
CCCC1O[C@@H]2C[C@H]3[C@@H]4CCC5=CC(=O)C=C[C@]5(C)[C@H]4[C@@H](O)C[C@]3(C)[C@]2(C(=O)CO)O1 (stereo partly shown) [budesonide],duration of maintained remission,"[1]; Example 3, therapy with budesonide and mesalazine",about 10 years
